Laboratory results published in EPA's ToxValDB 9.5 (doi:10.2903/j.efsa.2009.191r).

What was measured:
Apis mellifera = conditions: acute, mortality
Canidae = conditions: chronic; duration: 1 years; oral; Dog Other; clinical signs
Colinus virginianus = conditions: acute, oral, mortality; for LC50: diet
Rattus norvegicus = conditions: acute; oral; mortality
Anas platyrhynchos = conditions: short-term; oral; feed; mortality
Oncorhynchus mykiss = conditions: acute; duration: 96 hours; mortality
Daphnia magna = conditions: acute; duration: 48 hours; mortality

Row | Structure (SMILES) | LD50 (Apis mellifera; dermal) | LD50 (Apis mellifera; oral, unspecified) | NOAEL (Canidae) | LC50 (Colinus virginianus) | LD50 (Colinus virginianus) | LD50 (Rattus norvegicus) | LC50 (Anas platyrhynchos) | LC50 (Oncorhynchus mykiss) | LC50 (Daphnia magna)
1 | COc1ccc([N+](=O)[O-])cc1[O-].[Na+] [Sodium 2-methoxy-5-nitrophenolate] | > 100 µg/piece | 132 µg/piece | 0.3 mg/kg-day | 1830 mg/kg-day | 2070 mg/kg-day | 716 mg/kg-day |  |  | 
2 | O=[N+]([O-])c1ccccc1[O-].[Na+] [Sodium 2-nitrophenolate] | > 100 µg/piece | 124 µg/piece |  | > 2700 mg/kg-day | 1050 mg/kg-day | 960 mg/kg-day | > 2540 mg/kg-day |  | 
3 | O=[N+]([O-])c1ccc([O-])cc1.[Na+] [Sodium 4-nitrophenolate] | 111 µg/piece | > 61.2 µg/piece | 0.3 mg/kg-day | > 1410 mg/kg-day | > 1670 mg/kg-day | 346 mg/kg-day |  | 25 µg/mL | 27.7 µg/mL
